Legend:
CDK1/Cyclin B1 = CDK1/Cyclin B1 (Homo sapiens, UniProt P06493); assay: CDK1/Cyclin B1 Biochemical Assay (TR-FRET), 0.015 mM ATP; conditions: 0.15 μM Rb (Ser780)-biotin substrate, pH7.0, 60 min preincubation, 120 min reaction, room temperature
In short: (§1)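 TR-FRET assay with 0.15 μM Rb (Ser780)-biotin substrate and 0-10 μM compound in 50 mM HEPES pH7.0, 50 mM MgCl2, 1 mM DTT. ATP was 0.060 mM for CDK2/Cyclin E1 and 0.015 mM for CDK1/Cyclin B1. Kinase was preincubated with compound 60 min, reacted 120 min at room temperature, and IC50 was fitted (four-parameter) from the 665/620 nm ratio.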

CDK2/Cyclin E1 = CDK2/Cyclin E1 (Homo sapiens, UniProt P24941); assay: CDK2/Cyclin E1 Biochemical Assay (TR-FRET), 0.060 mM ATP; conditions: 0.15 μM Rb (Ser780)-biotin substrate, pH7.0, 60 min preincubation, 120 min reaction, room temperature
In short: as §1

CDK1/Cyclin B1, sequence (P06493 whole entry): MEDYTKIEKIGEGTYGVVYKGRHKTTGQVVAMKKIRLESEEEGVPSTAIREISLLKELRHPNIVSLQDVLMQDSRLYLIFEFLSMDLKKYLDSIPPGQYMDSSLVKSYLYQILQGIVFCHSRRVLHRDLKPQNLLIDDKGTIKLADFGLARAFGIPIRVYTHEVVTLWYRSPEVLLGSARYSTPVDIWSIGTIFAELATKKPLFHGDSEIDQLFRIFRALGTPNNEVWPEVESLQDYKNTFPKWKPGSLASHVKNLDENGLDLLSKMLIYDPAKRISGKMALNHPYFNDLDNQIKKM
CDK1/Cyclin B1, sequence (P14635 whole entry partner): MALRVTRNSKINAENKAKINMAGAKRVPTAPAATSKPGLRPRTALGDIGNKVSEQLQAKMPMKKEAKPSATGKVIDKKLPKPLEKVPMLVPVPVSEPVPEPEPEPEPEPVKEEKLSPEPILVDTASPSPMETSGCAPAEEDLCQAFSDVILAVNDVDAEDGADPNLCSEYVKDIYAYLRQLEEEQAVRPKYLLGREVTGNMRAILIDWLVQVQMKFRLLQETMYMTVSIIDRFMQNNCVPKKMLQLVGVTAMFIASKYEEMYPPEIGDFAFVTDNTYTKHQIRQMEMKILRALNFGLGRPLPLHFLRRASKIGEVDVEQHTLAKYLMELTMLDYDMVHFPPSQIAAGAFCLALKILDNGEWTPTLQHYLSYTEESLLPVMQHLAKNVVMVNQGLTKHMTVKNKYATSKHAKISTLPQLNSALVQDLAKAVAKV

IC50 (CDK1/Cyclin B1) [nM]	IC50 (CDK2/Cyclin E1) [nM]	Structure (SMILES)
133	3.8	CC1(NC(=O)O[C@H]2CC[C@@H](c3cc(Nc4ccc5c(c4F)CS(=O)(=O)N5C4CC4)n[nH]3)C2)COC1 (relative stereo) [Example 362, cis-3-(3-((1-cyclopropyl-4-fluoro-2,2-dioxido-1,3-dihydrobenzo[c]isothiazol-5-yl)amino)-1H-pyrazol-5-yl)cyclopentyl(3-methyloxetan-3-yl)carbamate]
102	1.6	COCC(C)(C)NC(=O)O[C@H]1CC[C@@H](c2cc(Nc3ccc4c(c3F)CNS4(=O)=O)n[nH]2)C1 (relative stereo) [Example 364, cis-3-(3-((4-fluoro-1,1-dioxido-2,3-dihydrobenzo[d]isothiazol-5-yl)amino)-1H-pyrazol-5-yl)cyclopentyl(1-methoxy-2-methylpropan-2-yl)carbamate]
> 10000	> 10000	CC(C)NC(=O)O[C@H]1CC[C@@H](c2cc(Nc3cc(CO)c4c(c3F)CNS4(=O)=O)n[nH]2)C1 (relative stereo) [Example 365, cis-3-(3-((4-fluoro-7-(hydroxymethyl)-1,1-dioxido-2,3-dihydrobenzo[d]isothiazol-5-yl)amino)-1H-pyrazol-5-yl)cyclopentyl isopropylcarbamat]
> 10000	> 10000	CCCNC(=O)O[C@H]1CC[C@@H](c2cc(Nc3cc(CO)c4c(c3F)CNS4(=O)=O)n[nH]2)C1 (relative stereo) [Example 366, cis-3-(3-((4-fluoro-7-(hydroxymethyl)-1,1-dioxido-2,3-dihydrobenzo[d]isothiazol-5-yl)amino)-1H-pyrazol-5-yl)cyclopentyl propylcarbamate]
117	1.7	COCC(C)NC(=O)O[C@H]1CC[C@@H](c2cc(Nc3ccc4c(c3F)CS(=O)(=O)N4C3CC3)n[nH]2)C1 (relative stereo) [Example 367, cis-3-(3-((1-cyclopropyl-4-fluoro-2,2-dioxido-1,3-dihydrobenzo[c]isothiazol-5-yl)amino)-1H-pyrazol-5-yl)cyclopentyl(1-methoxypropan-2-yl)carbamate]
95	1.2	CC1(NC(=O)O[C@H]2CC[C@@H](c3cc(Nc4ccc5c(c4F)CS(=O)(=O)N5C4CC4)n[nH]3)C2)CCOC1 (relative stereo) [Example 368, cis-3-(3-((1-cyclopropyl-4-fluoro-2,2-dioxido-1,3-dihydrobenzo[c]isothiazol-5-yl)amino)-1H-pyrazol-5-yl)cyclopentyl(3-methyltetrahydrofuran-3-yl)carbamate]
13	0.7	COCC(C)(C)NC(=O)O[C@H]1CC[C@@H](c2cc(Nc3ccc4c(c3)CS(=O)(=O)N4C)n[nH]2)C1 (relative stereo) [Example 369, cis-3-(3-((1-methyl-2,2-dioxido-1,3-dihydrobenzo[c]isothiazol-5-yl)amino)-1H-pyrazol-5-yl)cyclopentyl(1-methoxy-2-methylpropan-2-yl)carbamate]
9.7	1.1	COCC(C)(C)NC(=O)O[C@H]1CC[C@@H](c2cc(Nc3ccc4c(c3)CS(=O)(=O)N4)n[nH]2)C1 (relative stereo) [Example 370, cis-3-(3-((2,2-dioxido-1,3-dihydrobenzo[c]isothiazol-5-yl)amino)-1H-pyrazol-5-yl)cyclopentyl(1-methoxy-2-methylpropan-2-yl)carbamate]
265	3.5	COCC(C)(C)NC(=O)O[C@H]1CC[C@@H](c2cc(Nc3ccc4c(c3F)CN(C3CC3)S4(=O)=O)n[nH]2)C1 (relative stereo) [Example 371, cis-3-(3-((2-cyclopropyl-4-fluoro-1,1-dioxido-2,3-dihydrobenzo[d]isothiazol-5-yl)amino)-1H-pyrazol-5-yl)cyclopentyl(1-methoxy-2-methylpropan-2-yl)carbamate]
